# Laboratory results: US20230278972A1, “SUBSTITUTED HALOALKYL SULFONANILIDE HERBICIDES” (FMC Corporation, priority 2020, published 2023)
# Assays:
# Assay type in all cases: in vivo
# [1] = test system: Ryegrass, Italian (Italian ryegrass, Lolium multiflorum); assay: Test A1 preemergence, Ryegrass, Italian
# From the text: (§1) Seeds of plant species selected from, blackgrass (Alopecurus myosuroides), corn (Zea mays), Foxtail, Giant (giant foxtail, Setaria faberi), goosegrass (Eleusine indica), kochia (Bassia scoparia), Oat, Wild (wild oat, Avena fatua), Pigweed, Palmer (palmer amaranth, palmer pigweed, Amaranthus palmeri), ragweed (common ragweed, Ambrosia artemisiifolia), Ryegrass, Italian (Italian ryegrass, Lolium multiflorum), soybean (Glycine max), and wheat (Triticum aestivum) were planted into a blend of loam soil and sand and treated preemergence with a directed soil spray using test chemicals formulated in a non-phytotoxic solvent mixture which included a surfactant. At the same time, plants selected from these crop and weed species and also galium (catchweed bedstraw, Galium aparine) and horseweed (Erigeron canadensis) were planted in pots containing the same blend of loam soil and sand and treated with postemergence applications of test chemicals formulated in the same manner. Plants ranged in height from 2 to 10 cm and were in the one- to two-leaf stage for the postemergence treatment. […] A dash (-) response means no test result.
# [2] = test system: wheat (Triticum aestivum); assay: Test A1 preemergence, wheat
# From the text: as §1
# [3] = test system: Ryegrass, Italian (Italian ryegrass, Lolium multiflorum); assay: Test A1 postemergence, Ryegrass, Italian
# From the text: as §1
# [4] = test system: corn (Zea mays); assay: Test A1 postemergence, corn; conditions: Postemergence
# From the text: as §1
# [5] = test system: galium (catchweed bedstraw, Galium aparine); assay: Test A1 postemergence, galium
# From the text: as §1
# [6] = test system: ducksalad (Heteranthera limosa); assay: Test B1 flooded paddy test, ducksalad; conditions: 250 g ai/ha, Flood, applied to paddy water, 2-leaf stage, visually evaluated after 10 to 14 days
# From the text: (§2) A dash (-) response means no test result.
# [7] = test system: barnyardgrass (Echinochloa crus-galli); assay: Test B1 flooded paddy test, barnyardgrass; conditions: 250 g ai/ha, Flood, applied to paddy water, 2-leaf stage, visually evaluated after 10 to 14 days
# From the text: as §2
# [8] = test system: Oat, Wild (wild oat, Avena fatua); assay: Test A1 postemergence, Oat, Wild
# From the text: as §1
# [9] = test system: rice (Oryza sativa); assay: Test B1 flooded paddy test, rice; conditions: 250 g ai/ha, Flood, applied to paddy water, 2-leaf stage, visually evaluated after 10 to 14 days
# From the text: as §2
# [10] = test system: Foxtail, Giant (giant foxtail, Setaria faberi); assay: Test A1 preemergence, Foxtail, Giant
# From the text: as §1
# [11] = test system: soybean (Glycine max); assay: Test A1 preemergence, soybean
# From the text: as §1
# [12] = test system: kochia (Bassia scoparia); assay: Test A1 postemergence, kochia
# From the text: as §1
# [13] = test system: horseweed (Erigeron canadensis); assay: Test A1 postemergence, horseweed
# From the text: as §1
# [14] = test system: soybean (Glycine max); assay: Test A1 postemergence, soybean
# From the text: as §1
# [15] = test system: goosegrass (Eleusine indica); assay: Test A1 preemergence, goosegrass
# From the text: as §1
# [16] = test system: Foxtail, Giant (giant foxtail, Setaria faberi); assay: Test A1 postemergence, Foxtail, Giant
# From the text: as §1
# [17] = test system: Oat, Wild (wild oat, Avena fatua); assay: Test A1 preemergence, Oat, Wild
# From the text: as §1
# [18] = test system: ragweed (common ragweed, Ambrosia artemisiifolia); assay: Test A1 preemergence, ragweed
# From the text: as §1
# [19] = test system: goosegrass (Eleusine indica); assay: Test A1 postemergence, goosegrass
# From the text: as §1
# [20] = test system: corn (Zea mays); assay: Test A1 preemergence, corn
# From the text: as §1
# [21] = test system: kochia (Bassia scoparia); assay: Test A1 preemergence, kochia
# From the text: as §1
# [22] = test system: ragweed (common ragweed, Ambrosia artemisiifolia); assay: Test A1 postemergence, ragweed
# From the text: as §1
# [23] = test system: wheat (Triticum aestivum); assay: Test A1 postemergence, wheat
# From the text: as §1
# [24] = test system: Pigweed, Palmer (palmer amaranth, palmer pigweed, Amaranthus palmeri); assay: Test A1 postemergence, Pigweed, Palmer
# From the text: as §1
# [25] = test system: blackgrass (Alopecurus myosuroides); assay: Test A1 postemergence, blackgrass; conditions: Postemergence, 0 to 100 scale (0 no effect, 100 complete control)
# From the text: as §1
# [26] = 31 g ai/ha, 0 to 100 scale (0 no effect, 100 complete control)
# [27] = 125 g ai/ha, 0 to 100 scale, 0 no effect, 100 complete control
# [28] = 31 g ai/ha, postemergence, 0 to 100 scale (0 no effect, 100 complete control)
# [29] = Postemergence, 125 g ai/ha, 0 to 100 scale
structure (smiles),measurement,setting,value
CCOC(=O)N(c1cc(C2=NOC3CCCC23)c(CC)cc1C)S(=O)(=O)C(F)(F)F (centres unmarked) [Compound 379],"Plant response rating, Ryegrass, Italian",[1]; [26],0
same,"Plant response rating, Ryegrass, Italian",[1]; [27],40
same,"Plant response rating, Wheat",[2]; [26],0
same,"Plant response rating, Wheat",[2]; [27],30
same,"Ryegrass, Italian plant response rating",[3]; [28],0
same,"Plant response rating, Ryegrass, Italian",[3]; [29],0
same,"Plant response rating, Corn","[4]; 31 g ai/ha, 0 to 100 scale (0 no effect, 100 complete control), 10 days",0
same,"Plant response rating, Corn","[4]; 125 g ai/ha, 0 to 100 scale",0
same,Galium plant response rating,[5]; [28],0
same,"Plant response rating, Galium",[5]; [29],40
same,"Plant response rating, Ducksalad (0 to 100 scale, 0 is no effect, 100 is complete control)",[6],60
same,"Plant response rating, Barnyardgrass (0 to 100 scale, 0 is no effect, 100 is complete control)",[7],95
same,"Oat, Wild plant response rating",[8]; [28],0
same,"Plant response rating, Oat, Wild",[8]; [29],20
same,"Plant response rating, Rice (0 to 100 scale, 0 is no effect, 100 is complete control)",[9],0
same,"Plant response rating, Foxtail, Giant",[10]; [26],0
same,"Plant response rating, Foxtail, Giant",[10]; [27],70
same,"Plant response rating, Soybean",[11]; [26],0
same,"Plant response rating, Soybean",[11]; [27],0
same,Kochia plant response rating,[12]; [28],0
same,"Plant response rating, Kochia",[12]; [29],40
same,Horseweed plant response rating,[13]; [28],0
same,"Plant response rating, Horseweed",[13]; [29],50
same,Soybean plant response rating,[14]; [28],0
same,"Plant response rating, Soybean",[14]; [29],20
same,"Plant response rating, Goosegrass",[15]; [26],20
same,"Plant response rating, Goosegrass",[15]; [27],90
same,"Foxtail, Giant plant response rating",[16]; [28],0
same,"Plant response rating, Foxtail, Giant",[16]; [29],10
same,"Plant response rating, Oat, Wild",[17]; [26],0
same,"Plant response rating, Oat, Wild",[17]; [27],20
same,"Plant response rating, Ragweed",[18]; [26],0
same,"Plant response rating, Ragweed",[18]; [27],0
same,Goosegrass plant response rating,[19]; [28],10
same,"Plant response rating, Goosegrass",[19]; [29],60
same,"Plant response rating, Corn",[20]; [26],0
same,"Plant response rating, Corn",[20]; [27],0
same,"Plant response rating, Kochia",[21]; [26],0
same,"Plant response rating, Kochia",[21]; [27],10
same,Ragweed plant response rating,[22]; [28],20
same,"Plant response rating, Ragweed",[22]; [29],40
same,Wheat plant response rating,[23]; [28],20
same,"Plant response rating, Wheat",[23]; [29],70
same,"Pigweed, Palmer plant response rating",[24]; [28],0
same,"Plant response rating, Pigweed, Palmer",[24]; [29],10
same,"Plant response rating, Blackgrass","[25]; 31 g ai/ha, 10 days",0
same,"Plant response rating, Blackgrass",[25]; 125 g ai/ha,30
